Our source for the TGI and GI50 values is PubChem BioAssay (NCI).

SMILES strings stand for the structures. “And” between values parts separate entries of the source, which are not always exact repeats. Equal values may be shown once.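 Interpolation was linear, between the two tested concentrations surrounding the appropriate level; five concentrations were tested over 48 hours in 96-well plates. GI50 is the concentration that inhibits growth by half. TGI: total growth inhibition.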

What all share (assay): NCI tumour cell line growth inhibition, 48 h
In test [1] the test system is LXFL 529 NSCLC.
Test [2] relates to HOP-18 NSCLC.
The subject of test [3] is M19-MEL melanoma.
In test [4] the test system is DLD-1 colon.
In test [5] the test system is DMS 114 small cell lung.
In test [6] the test system is RXF-631 renal.
For test [7], the system named is MDA-N.
For test [8], the system named is P388/ADR leukemia.
Test [9] has as its system SN12K1 renal.
Test [10] has as its system P388 leukemia.

As for `N#Cc1ccc(Sc2nc3ccccc3[nH]2)cc1`, the TGI in test [1], in test [2], in test [3], in test [4] and in test [5] was above 100 µM in each case.
Turning to `Cc1ccccc1C(CCCO)C(=O)O` (centres undefined), the TGI in test [1], in test [3], in test [4] and in test [5] was above 100 µM each time.
With `O=C(c1ccccc1)[C@H]1Nc2ccc(Cl)cc2[C@H]2CCC[C@@H]12`, the TGI is 64.9 µM in test [1]; 59.6 µM in test [2]; above 100 µM in test [3]; above 100 µM in test [6]; above 100 µM in test [4]; above 100 µM in [5].
For the compound `CCOC(=O)/C(=C/c1ccccn1)C(=O)c1ccccc1`, the TGI in test [1] amounted to 23.5 µM; in test [2] it was 32.7 µM; in test [3], 31.3 µM; in [6], 28.9 µM; in [4], 29.5 µM; in [5], 28.5 µM.
Regarding `CC(=O)O[C@H]1CC2C(C3CC[C@H](C(C)CCC(=O)O)[C@]31C)[C@H](OC(C)=O)C[C@@H]1CC3(CC[C@]21C)OOC1(CCC(C)CC1)OO3` (some centres undefined), the TGI in [7] was 19.9 µM and 15 µM.
The same measure, in the same setting: with `COc1cc(OC)c(OC)cc1/C=C/c1nc2ccccc2s1` the figure was above 100 µM.
As for `CCOC(=O)C1=C(NC)OCC1=O`, the TGI in test [1], in test [3], in test [6] and in [5] was above 100 µM in each case.
Turning to `CC(C)Cc1ccc(C(C)/C=C2\CCC(CN(C)C)C2=O)cc1` (centres undefined), the TGI in test [1] came to 22.6 µM; in test [2], 32.2 µM; in test [3], 37.5 µM; in [7], 22.2 µM; in [4] it was 40 µM; in test [5], 46.1 µM.
In the case of `N#CC1CC(c2ccccc2)Nc2cc(Cl)ccc2N1` (centres undefined), the TGI in test [1] is above 100 µM; in test [2], above 100 µM; in test [3], above 100 µM; in test [4], above 100 µM; in [5], 97.3 µM.
In the case of `CCc1cccc(CC)c1NC(=O)/C(Cl)=C(/Cl)C(=O)O`, the TGI in [1] came to 20.9 µM; in [2], 49.5 µM; in [3], 46.5 µM; in test [4], 49.1 µM; in [5], 40.9 µM.
Turning to `COc1cc(/C=C2\NC(=O)C(Cc3cc(OC)c(OC)c(C)c3OC)N(C(C)=O)C2=O)c(OC)c(C)c1OC` (centres undefined), the TGI was above 100 µM in [1]; 99.6 µM in test [2]; above 100 µM in [3]; above 100 µM in [4]; above 100 µM in [5].
On to `O=C(O)CN(CCN(CC(=O)O)CC(=O)O)CC(=O)O.[Mn+2]`, for which, in [7], the GI50 was above 100 µM and the TGI was above 100 µM.
For `COC(=O)C(C(=O)C(=O)Nc1c(Cl)cc([N+](=O)[O-])cc1Cl)c1csc(-n2nc(C3=CCCCC3)cc2-c2ccccc2)n1` (centres undefined), the TGI in test [1], in test [2], in test [3], in test [6] and in test [4] was above 100 µM throughout.
Regarding `OC(c1ccccc1Br)(c1ccccc1Br)C(F)(F)F`, the TGI in [1] is above 100 µM; in test [2] it was above 100 µM; in test [3] it was 74 µM; in test [4], 97.6 µM; in test [5], 38.2 µM.
For `COc1ccc2nc(NC(=O)C(=O)CC(=O)c3ccc([N+](=O)[O-])cc3)sc2c1`, the TGI in test [1], in [3], in test [6], in [4] and in test [5] was above 100 µM throughout.
For `CC(=O)[CH-]C(=O)c1ccccc1.[C-]#[O+].[C-]#[O+].[Ir]`, the GI50 in test [2], in test [3] and in [4] was above 100 µM each time. Besides, the TGI in [2], in [3] and in [4] was above 100 µM each time.
Regarding `CCOC(=O)C1(C)CCC(C(C(=O)O)C(=O)O)CC1=O` (centres undefined), the TGI in test [1], in test [2], in test [3], in [6], in [4] and in test [5] was above 100 µM each time.
On to `[O]=[V]([OH])([OH])[OH]`, for which, in test [7], the GI50 was 94.6 µM and the TGI was above 100 µM.
As to `COc1ccc(-c2c(C3=NCCCN3)nnn2-c2ccccc2)cc1`, the TGI in [1], in [2], in test [3], in test [4] and in [5] was above 100 µM throughout.
Consider `CCCC(=O)CC(C)C(=O)C(=O)NC12CC3CC(CC(C3)C1)C2` (centres undefined), for which the TGI in test [2] and in test [4] was above 100 µM throughout.
With `COc1ccc2c(C(=O)O)cc3ccccc3c2c1OC`, the TGI was 30.9 µM in [1]; 28.9 µM in test [2]; 61 µM in [3]; above 100 µM in test [4]; 38 µM in test [5].
As to `Cn1c(=O)c2nc3sc4c(n3c2n(C)c1=O)C(=O)c1ccccc1C4=O`, the TGI in [1], in test [2], in [3], in test [7], in test [6] and in test [4] was above 100 µM throughout. Also, the TGI in test [5] was above 100 µM.
As for `COC12C(COC(=O)NCCO)C3=C(C(=O)C(C)=C(N)C3=O)N1CC1NC12` (centres undefined), in [7], the TGI is above 264 µM.
As for `O=C1NC(=O)C2C(=O)NC(=O)C1C2Cc1ccco1` (centres undefined), the TGI in test [3], in test [4] and in test [5] was above 100 µM each time.
Regarding `CC(=O)OCC(=O)[C@@]1(O)CC[C@H]2[C@@H]3C[C@H](C)C4=CC(=O)C=C[C@]4(C)[C@@]3(F)[C@@H](O)C[C@@]21C`, the TGI in test [3], in test [6], in [4] and in test [5] was above 100 µM each time.
`COc1ccc2ccccc2c1C1=NC(C)(C)CO1`: the TGI in test [1], in [2], in test [3], in [6] and in test [4] was above 100 µM each time.
As for `c1ccc(C(c2ccccc2)c2ccccn2)cc1`, the TGI in test [2], in test [3], in test [6], in test [4] and in test [5] was above 100 µM each time.
For the compound `O=C(CCCC(=O)Nc1ccc(Cl)cc1Cl)CC(=O)c1ccc2ccccc2c1`, the TGI in test [1], in test [2], in [3], in test [6], in test [4] and in test [5] was above 100 µM throughout.
Consider `Nc1nc(=S)c2c(ncn2CCO)[nH]1`, for which the TGI in test [1], in test [2], in test [3], in test [4] and in test [5] was above 100 µM in each case.
With `O=C1CC(c2ccc(Cl)cc2)=Nc2ccccc2N1`, the TGI in test [1], in test [2], in [3], in test [6], in test [4] and in [5] was above 100 µM in each case.
Turning to `O=C1N[C@@H]2CCCC[C@@H]2C12CCCCC2`, the TGI in [1], in [2], in [3], in test [6] and in test [4] was above 100 µM each time.
`COC(=O)C1=C(C(=O)OC)C2(c3ccccc3)OC1(c1ccccc1)c1cc3ccccc3cc12`: the TGI stood at 2.63 µM in [1]; 2.45 µM in test [2]; 4.22 µM in test [3]; 4.69 µM in test [6]; 3.46 µM in [4].
As for `COc1cc(/C=C/c2csnn2)cc(OC)c1OC`, the TGI in [1], in test [2], in [3], in test [4] and in test [5] was above 100 µM each time.
Regarding `CCCCCCCCOCC(COC(=O)CCCCCCC)OC(=O)CCCCCCC` (centres undefined), the TGI in test [1], in test [2], in [3], in test [6], in [4] and in test [5] was above 100 µM throughout.
In the case of `CC(=O)Nc1ccc(C2CC(c3ccc([N+](=O)[O-])cc3)=Nc3ccccc3S2=O)cc1` (centres undefined), the TGI in [1] was 34.6 µM; in test [2] it was above 100 µM; in test [3], 38 µM; in test [4], 34.5 µM; in [5], 69.1 µM.
As to `CCOC(=O)c1ccc(N=Nc2ccc(N(CCC#N)CCC#N)cc2C)cc1`, the TGI in test [1], in [2], in test [3], in test [6], in [4] and in [5] was above 100 µM each time.
For the compound `O=NN(CCCl)C(=O)NC1CCC(CC(=O)O)CC1` (centres undefined), the TGI was > 100 µM and 13.7 µM in test [8]; above 100 µM in [9]; above 100 µM in [1]; above 100 µM in test [2]; above 100 µM in test [3]; > 62.3 µM and 16.7 µM in test [10]. Moreover, the TGI in test [4] and in test [5] was above 100 µM throughout.
Turning to `CC(=O)Oc1c(C(=O)[O-])cc(C(C)C)cc1C(C)C.CC(=O)Oc1c(C(=O)[O-])cc(C(C)C)cc1C(C)C.CC(=O)Oc1c(C(=O)[O-])cc(C(C)C)cc1C(C)C.CC(=O)Oc1c(C(=O)[O-])cc(C(C)C)cc1C(C)C.[Cu+2].[Cu+2]`, in test [7], the GI50 was 18.8 µM and the TGI was 33.4 µM.
As for `NC(N)=NCCCC(NCc1c2ccccc2nc2ccccc12)C(=O)O` (centres undefined), the TGI in test [1] was above 100 µM; in test [3], above 100 µM; in [7], above 100 µM; in test [4] it was 50.5 µM; in test [5], 79.4 µM.
With `CCCCCCCCCCCC[C@@H](O)[C@H]1CC[C@H]([C@H](O)CC[C@H](O)[C@@H]2CC[C@@H](CCCCCCCC3=C[C@H](C)OC3=O)O2)O1`, in test [7], the GI50 was above 50 µM and the TGI was above 50 µM.
Turning to `CCOC(=O)/C(=C\c1cccc(C)c1)C(C)=O`, in [7], the TGI is 31.4 µM.
In the case of `CC12OC(=O)C(C#N)C1(C)C1C(=O)CCCC12` (centres undefined), the TGI in test [1], in test [2], in [3], in test [4] and in test [5] was above 100 µM throughout.
As for `C[C@H](C(=O)O)C(=O)NC(=O)N(Cc1ccccc1)N=O`, the TGI was above 100 µM in test [1]; 0.0783 µM in test [2]; above 100 µM in [3]; above 100 µM in [4]; above 100 µM in test [5].
In [7], `CCO/C=C1\SC(=S)N(c2ccc(OCC)cc2)C1=O` had a TGI above 100 µM.
